Experimental data reported in patent US12509468B2, “Quindoline compounds and uses thereof” (Arizona Board of Regents on Behalf of the University of …, priority 2019, dated 2025).

Tests used:
[1] = test system: DNA oligomer containing the G-quadruplex forming region of the c-Myc promoter; experiment: FRET assay with c-Myc G-quadruplex oligomer (ED35); type: binding; settings: concentration of ligand that decreases relative fluorescence of DNA FRET probe (1 μM) by 35%
Description: All synthesized ligands are examined with a DNA oligomer containing the G-quadruplex forming region of the c-Myc promoter (d[[…]]). The oligomer is tagged with a 5′-FAM fluorophore and a 3′-Black Hole Quencher molecule. 1 μM oligomer is linearized by heating at 95° C. for 5 minutes in a 50 mM Tris-Acetate buffer (pH 7.1) and slowly cooled back to room temperature, allowing formation of a G-quadruplex. Ligand is added to the oligomer probe at various concentrations spanning a 2-3 log range (high dose of 10 μM), allowed to incubate for 15 minutes in the dark and fluorescence is read on the BioTek Synergy HT spectrophotometer (Biotek, Winooski, VT). Drug autofluorescence is subtracted, data is normalized to oligomer only, and ED35s are calculated from data fit by a sigmoidal top-to-bottom nonlinear regression. ED35s<10 μM are further analyzed by circular dichroism (CD).
Experimental values for compounds tested according to one or more of the preceding examples are reported in the following table, including, ED35 is the concentration of ligand that decreases the relative fluorescence of a DNA FRET probe (1 μM) by 35% (identified as the threshold to minimize false negatives). ED35 values are reported in ranges: A: >10 μM; B: ≤10 μM.

[2] = test system: c-Myc oligomer (parallel G-quadruplex); experiment: Circular dichroism melting (ΔTm) with 1 equivalent of ligand; type: binding; settings: increase in melting temperature with 1 equivalent of ligand (DNA:Ligand=1:1)
Description: Non-labeled oligomers were prepared as described for FRET (Example VII). Ligands interacting with the c-Myc FRET oligomer are further examined for DNA secondary structure stabilization by CD (Sun et al., 2005). Briefly, the CD absorption spectra at 262 nm (parallel G-quadruplex) with increasing temperatures (4-95° C.) is examined in the absence and presence of 1 equivalence of ligand. TM is calculated by GraphPad Prizm using a top-to-bottom nonlinear fit, and ΔTM are calculated for each ligands.

hTERT G-quadruplex = experiment: Competition dialysis, ligand bound to G-quadruplex; type: binding; settings: 2 μM of compound
Description: (§1) Following the competition dialysis assay method of the Chaires group (Ragazzon et al., Methods 2007, 42, 173-182, which is hereby incorporated by reference in its entirety) using 2 μM of the referenced compound, the concentration of ligand bound to G-quadruplex structure for a variety of target genes were determined.

Telomeric G-quadruplex = experiment: Competition dialysis, ligand bound to G-quadruplex; type: binding; settings: 2 μM of compound
Description: as §1

VEGF G-quadruplex = experiment: Competition dialysis, ligand bound to G-quadruplex; type: binding; settings: 2 μM of compound
Description: as §1

MYC G-quadruplex = experiment: Competition dialysis, ligand bound to G-quadruplex; type: binding; settings: 2 μM of compound
Description: as §1

PDGF-Rβ G-quadruplex = experiment: Competition dialysis, ligand bound to G-quadruplex; type: binding; settings: 2 μM of compound
Description: as §1

HIF-1α G-quadruplex = experiment: Competition dialysis, ligand bound to G-quadruplex; type: binding; settings: 2 μM of compound
Description: as §1

PDGFA G-quadruplex = experiment: Competition dialysis, ligand bound to G-quadruplex; type: binding; settings: 2 μM of compound
Description: as §1

Bcl-2 G-quadruplex = experiment: Competition dialysis, ligand bound to G-quadruplex; type: binding; settings: 2 μM of compound
Description: as §1

AR mRNA = AR mRNA expression by RT-qPCR; type: cell-based; settings: 10 μM; for AR mRNA: LNCaP and C4-2 cells, 12 and 24 hours
Description: (§2) This example provides specific compounds of the present invention suppress AR protein expression in androgen-dependent (LNCaP) and CRPC tumor cells ([…]) after a 24 h treatment at 10 μM (FIG. 1A) (Cell lysates from LNCaP and C4-2 cells treated with GSA compounds at a concentration of 10 μM for 24 hours were analyzed for expression of AR, NCL, and GAPDH by immunoblotting). GSA0932 suppress AR expression in 22RV1 and VCaP tumor cells, after 24 h of treatment reaching its maximal inhibitory activity at a concentration of 3 and 5 μM respectively (FIG. 1B) (Cell lysates from indicated prostate cancer cell lines treated with increasing concentrations GSA0932 for 24 hours were analyzed for AR, NCL, and GAPDH by immunoblotting). […] Values are means±s.e.m; p<0.05 (*); n=3).
(§3) To measure the dependency of GSA0932-mediated AR suppression on the AR G4-element, we generated a stable LNCaP cell lines expressing a dual reporter in which Gaussia luciferase is driven by either a wild type or a mutant AR promoter lacking the G4 element, and secreted alkaline phosphatase (SEAP) is driven by a constitutive promoter. […] However, GSA0932 had no effect on the G4-deleted AR reporter (FIG. 1E). […] Knocking down NCL expression alleviated the GSA0932 inhibitory activity against AR mRNA expression compared with control cells (FIG. 1G) (LNCaP cells were transfected with scrambled (Scr) or NCL siRNAs and […] post-transfection, cells were treated with DMSO, 10 μM GSA0932, or […] GSA1502 for 12 hours. Extracted RNA was analyzed for AR expression by RT-qPCR).

AR = AR protein expression by immunoblotting in prostate cancer cells; type: cell-based; settings: for concentration of maximal inhibitory activity on AR expression: 24 h of treatment
Description: as §2

[3] = test system: NCL bound to the G4-element of the AR promoter; experiment: ChIP of NCL on AR G4; type: cell-based; settings: LNCaP and C4-2 cells, 10 μM
22Rv1 cells = experiment: Cell viability by MTT, 48 h; type: cell-based; settings: Homo sapiens, 22Rv1, 48 h
From the text: (§4) Table V provides the IC50 values for GSA0932.

C4-2 cells = experiment: Cell viability by MTT, 48 h; type: cell-based; settings: C4-2, 48 h
From the text: as §4

[4] = test system: RWPE non-malignant prostate cells; experiment: Cell viability by MTT, 48 h; type: cell-based
From the text: as §4

VCaP cells = experiment: Cell viability by MTT, 48 h; type: cell-based; settings: Homo sapiens
From the text: as §4

LNCaP cells = experiment: Cell viability by MTT, 48 h; type: cell-based; settings: Homo sapiens
From the text: as §4

PC3 cells = experiment: Cell viability by MTT, 48 h; type: cell-based; settings: Homo sapiens, PC-3, PC3, 48 h
From the text: as §4

[5] = test system: AR-positive tumor cells versus non-AR expressing cells; experiment: Cytotoxic activity across prostate cell lines by MTT; type: cell-based; settings: 48 h
From the text: as §4

[6] = test system: wild type AR promoter (AR G4) reporter; experiment: Dual reporter, Gaussia luciferase driven by wild type AR promoter, in LNCaP; type: cell-based; settings: LNCaP stable cells, 10 μM, 12 hours
From the text: as §3

ARv7 splice variant = ARv7 splice variant expression by immunoblotting in 22RV1; type: cell-based; settings: 22RV1 cells, 24 h
Description: as §2

G4-deleted AR reporter = experiment: Dual reporter, Gaussia luciferase driven by mutant AR promoter lacking the G4 element, in LNCaP; type: cell-based; settings: LNCaP stable cells, 10 μM, 12 hours
From the text: as §3

KLK3, also known as PSA = experiment: mRNA expression of AR target gene by RT-qPCR; type: cell-based; settings: 12 hours; 10 μM (LNCaP, C4-2), 5 μM (VCaP), 3 μM (22RV1)

SMILES: OC1CCN(CCN2CCCn3c4ccccc4c4nc5ccccc5c2c43)CC1 [Compound 2]
- ED35 [1]: A (A: >10 μM)
- ΔTm [2]: A (A: 0-10° C.)

SMILES: NCCCN1CCCn2c3ccccc3c3nc4ccccc4c1c32 [Compound 14]
- ED35 [1]: B (B: ≤10 μM)
- ΔTm [2]: A (A: 0-10° C.)

SMILES: O=C(NCCCN1CCCn2c3ccccc3c3nc4ccccc4c1c32)C1C[C@@H](O)CN1 (stereo partly drawn) [Compound 11]
- ED35 [1]: B (B: ≤10 μM)
- ΔTm [2]: B (B: >10° C.)

SMILES: OC1CCN(CCCN2CCCn3c4ccccc4c4nc5ccccc5c2c43)CC1 [Compound 7]
- ED35 [1]: B (B: ≤10 μM)
- ΔTm [2]: A (A: 0-10° C.)

SMILES: c1ccc2c3c4c(nc2c1)c1ccccc1n4CCCN3CCCN1CCOCC1 [Compound 3]
- concentration of ligand bound to G-quadruplex structure (hTERT G-quadruplex): 10.5 µM
- concentration of ligand bound to G-quadruplex structure (Telomeric G-quadruplex): 1.0 µM
- concentration of ligand bound to G-quadruplex structure (VEGF G-quadruplex): 3.0 µM
- concentration of ligand bound to G-quadruplex structure (MYC G-quadruplex): 1.0 µM
- concentration of ligand bound to G-quadruplex structure (PDGF-Rβ G-quadruplex): 0.0 µM
- concentration of ligand bound to G-quadruplex structure (HIF-1α G-quadruplex): 4.0 µM
- concentration of ligand bound to G-quadruplex structure (PDGFA G-quadruplex): 0.5 µM
- concentration of ligand bound to G-quadruplex structure (Bcl-2 G-quadruplex): 3.0 µM
- ED35 [1]: B (B: ≤10 μM)
- ΔTm [2]: A (A: 0-10° C.)

SMILES: CN1CCN(CCCN2CCCn3c4ccccc4c4nc5ccccc5c2c43)CC1 [Compound 5]
- ED35 [1]: A (A: >10 μM)
- ΔTm [2]: A (A: 0-10° C.)

SMILES: c1ccc2c3c4c(nc2c1)c1ccccc1n4CCCN3CCN1CCOCC1 [Compound 1]
- ED35 [1]: A (A: >10 μM)
- ΔTm [2]: A (A: 0-10° C.)

SMILES: c1ccc2c3c4c(nc2c1)c1ccccc1n4CCCN3CCCN1CCCCC1 [Compound 15]
- ED35 [1]: B (B: ≤10 μM)

SMILES: c1ccc2c3c4c(nc2c1)c1ccccc1n4CCCN3CCCNc1ncnc2nc[nH]c12 [Compound 12]
- ED35 [1]: B (B: ≤10 μM)
- ΔTm [2]: A (A: 0-10° C.)

SMILES: Cl.c1ccc2c3c4c(nc2c1)c1ccccc1n4CCCN3CCCN1CCCCCC1 [Compound 6]
- ED35 [1]: A (A: >10 μM)
- ΔTm [2]: A (A: 0-10° C.)

SMILES: OCCCN1CCCn2c3ccccc3c3nc4ccccc4c1c32 [Compound 4]
- ED35 [1]: B (B: ≤10 μM)
- ΔTm [2]: A (A: 0-10° C.)

SMILES: CN1CCN(C(=O)N2C[C@H](O)CC2C(=O)NCCCN2CCCn3c4ccccc4c4nc5ccccc5c2c43)CC1 (stereo partly drawn) [Compound 13]
- ED35 [1]: B (B: ≤10 μM)
- ΔTm [2]: A (A: 0-10° C.)

SMILES: CN(C)CCN1CCCn2c3ccccc3c3nc4ccccc4c1c32 [GSA1502]
- AR mRNA (AR mRNA): does not affect
- AR protein expression (AR; LNCaP and C4-2 cells, 24 h, 10 μM): does not affect

SMILES: CN1CCN(C(=O)NCCCN2CCCn3c4ccccc4c4nc5ccccc5c2c43)CC1 [Compound 10]
- concentration of ligand bound to G-quadruplex structure (hTERT G-quadruplex): 9.5 µM
- concentration of ligand bound to G-quadruplex structure (Telomeric G-quadruplex): 2.9 µM
- concentration of ligand bound to G-quadruplex structure (VEGF G-quadruplex): 2.5 µM
- concentration of ligand bound to G-quadruplex structure (MYC G-quadruplex): 6.8 µM
- concentration of ligand bound to G-quadruplex structure (PDGF-Rβ G-quadruplex): 8.3 µM
- concentration of ligand bound to G-quadruplex structure (HIF-1α G-quadruplex): 3.3 µM
- concentration of ligand bound to G-quadruplex structure (PDGFA G-quadruplex): 1.8 µM
- concentration of ligand bound to G-quadruplex structure (Bcl-2 G-quadruplex): 8.3 µM
- ED35 [1]: B (B: ≤10 μM)
- ΔTm [2]: A (A: 0-10° C.)

SMILES: O=C(NCCN1CCCn2c3ccccc3c3nc4ccccc4c1c32)C1C[C@@H](O)CN1 (stereo partly drawn) [Compound 9]
- ED35 [1]: B (B: ≤10 μM)
- ΔTm [2]: B (B: >10° C.)

SMILES: CN1CCN(C(=O)NCCN2CCCn3c4ccccc4c4nc5ccccc5c2c43)CC1 [Compound 8]
- ED35 [1]: B (B: ≤10 μM)
- ΔTm [2]: B (B: >10° C.)

SMILES: OC1CCN(CCN2CCCn3c4ccccc4c4nc5ccccc5c2c43)CC1 [GSA0932]
- amount of NCL bound to the G4-element of the AR promoter [3]: increases the amount of NCL bound
- IC50 (22Rv1 cells): 900 ± 110 nM
- IC50 (C4-2 cells): 2000 ± 40 nM
- IC50 [4]: 5400 ± 50 nM
- IC50 (VCaP cells): 2800 ± 30 nM
- IC50 (LNCaP cells): 1400 ± 260 nM
- IC50 (PC3 cells): 4300 ± 160 nM
- AR mRNA (AR mRNA): significantly decreased
- inhibitory activity against AR mRNA expression after NCL knockdown (AR mRNA; LNCaP cells, NCL siRNA versus scrambled, 12 hours): alleviated
- concentration of maximal inhibitory activity on AR expression (AR; 22RV1 cells): 3 µM
- concentration of maximal inhibitory activity on AR expression (AR; VCaP cells): 5 µM
- cytotoxic activity, AR-positive versus non-AR expressing cells [5]: stronger cytotoxic activity against AR-positive tumor cells than non-AR expressing cells
- luciferase activity of wild type reporter [6]: significantly decreases luciferase activity
- expression of ARv7 splice variant (ARv7 splice variant): inhibits the expression
- effect on G4-deleted AR reporter (G4-deleted AR reporter): had no effect
- mRNA expression of AR target gene KLK3 (PSA) (KLK3, also known as PSA): suppressed mRNA expression
